Reference: patent US9834542B2, “LXR modulators” (BRISTOL-MYERS SQUIBB COMPANY, priority 2013, dated 2017)

Biological target: T1, LXRβ (Homo sapiens, UniProt P55055)
T1 construct: Co-transfection expression plasmids, comprising full-length LXRα (pCMX-h LXRα[…] or LXRβ (pCMX-hLXRβ)); expressed in transfected cells; host or cells: CV-1 African Green Monkey Kidney Cells
T1 sequence (P55055 1-460): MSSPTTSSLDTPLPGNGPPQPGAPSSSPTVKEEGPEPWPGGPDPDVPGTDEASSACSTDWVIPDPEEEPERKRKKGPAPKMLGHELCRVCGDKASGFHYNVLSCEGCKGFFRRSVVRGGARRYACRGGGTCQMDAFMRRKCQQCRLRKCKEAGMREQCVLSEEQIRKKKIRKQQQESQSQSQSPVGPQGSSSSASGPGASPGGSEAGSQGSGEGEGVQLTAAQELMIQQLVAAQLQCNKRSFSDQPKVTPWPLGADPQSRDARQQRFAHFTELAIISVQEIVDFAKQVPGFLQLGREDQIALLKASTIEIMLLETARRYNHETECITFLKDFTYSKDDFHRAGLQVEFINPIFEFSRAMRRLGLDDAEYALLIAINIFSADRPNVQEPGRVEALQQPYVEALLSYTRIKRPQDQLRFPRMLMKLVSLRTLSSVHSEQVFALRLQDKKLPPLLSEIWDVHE
T1 sequence (P19793 1-462 partner): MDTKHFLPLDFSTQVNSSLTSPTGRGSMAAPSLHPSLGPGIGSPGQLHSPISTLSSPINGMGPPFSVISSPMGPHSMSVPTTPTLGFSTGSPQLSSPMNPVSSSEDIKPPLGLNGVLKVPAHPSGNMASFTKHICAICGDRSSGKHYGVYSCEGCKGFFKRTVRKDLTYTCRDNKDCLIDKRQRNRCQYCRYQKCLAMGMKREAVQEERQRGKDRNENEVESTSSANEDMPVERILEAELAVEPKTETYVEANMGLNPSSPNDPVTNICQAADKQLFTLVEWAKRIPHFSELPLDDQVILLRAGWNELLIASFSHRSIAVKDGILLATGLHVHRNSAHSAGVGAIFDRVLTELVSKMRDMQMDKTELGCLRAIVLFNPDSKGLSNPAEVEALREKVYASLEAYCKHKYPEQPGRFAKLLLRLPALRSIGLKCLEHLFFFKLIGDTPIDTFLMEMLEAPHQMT
Assay: Co-transfection assay (LXRE luciferase reporter), LXRβ
Type: cell-based
Set-up: % Efficacy: concentration or dose not given beside the values
Settings: for EC50: CV-1 cells transfected with pCMX-hLXRβ and LXREx1-Tk-Luciferase, 20 hours incubation; for Emax: read-out: % Efficacy
In short: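 Cell-based LXRβ agonism measured as LXRE-luciferase induction in transiently transfected CV-1 cells after 20 h treatment. Potency is the curve-fit EC50; efficacy is expressed as percent of a full-agonist control's maximal response.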

[1] = LXRβ co-transfection, relative to high control 1-(2,4-difluorobenzyl)-2-oxo-6-(4-phenoxyphenyl)-4-(trifluoromethyl)-1,2-dihydropyridine-3-carbonitrile

## Cc1nc(-c2cc(-c3cccc(S(C)(=O)=O)c3)ccc2-n2cc(C(F)(F)F)nc2C)c(-c2ccc(OC(CF)CF)c(F)c2)o1 [Example 406, 5-(4-(1,3-difluoropropan-2-yloxy)-3-fluorophenyl)-2-methyl-4-(4-(2-methyl-4-(trifluoromethyl)-1H-imidazol-1-yl)-3′-(methylsulfonyl)biphenyl-3-yl)oxazole]
  EC50: 181 nM
[1]
  Emax: 68%

## CS(=O)(=O)c1cccc(-c2ccc(-n3cnc(C(F)(F)F)c3)c(-n3nncc3-c3ccc(Cl)cc3Cl)c2)c1 [Example 19, 5-(2,4-dichlorophenyl)-1-{3′-(methylsulfonyl)-4-[4-(trifluoromethyl)-1H-imidazol-1-yl]biphenyl-3-yl}-1H-1,2,3-triazole]
  EC50: 1070 nM
[1]
  Emax: 80%

## Cc1cc(-c2cnnn2-c2cc(-c3cccc(S(C)(=O)=O)c3)ccc2-n2cc(C(F)(F)F)nc2C)ccc1OC(F)(F)F [Example 20, 1-{3′-(methylsulfonyl)-4-[2-methyl-4-(trifluoromethyl)-1H-imidazol-1-yl]biphenyl-3-yl}-5-{3-methyl-4-[(trifluoromethyl)oxy]phenyl}-1H-1,2,3-triazole]
  EC50: 130 nM
[1]
  Emax: 93%

## Cc1nc(C(F)(F)F)cn1-c1ccc(-c2cccc(S(C)(=O)=O)c2)cc1-n1nncc1-c1cc(F)c(F)c(F)c1 [Example 71, 1-{3′-(methylsulfonyl)-4-[2-methyl-4-(trifluoromethyl)-1H-imidazol-1-yl]biphenyl-3-yl}-5-(3,4,5-trifluorophenyl)-1H-1,2,3-triazole]
  EC50: 400 nM
[1]
  Emax: 105%

## Cc1nc(-c2cc(-c3cc(F)c(CO)c(S(C)(=O)=O)c3)ccc2-n2cc(C(F)(F)F)nc2C)c(-c2cccc(Cl)n2)o1 [Example 427, (3′-(5-(6-chloropyridin-2-yl)-2-methyloxazol-4-yl)-3-fluoro-4′-(2-methyl-4-(trifluoromethyl)-1H-imidazol-1-yl)-5-(methylsulfonyl)biphenyl-4-yl)methanol]
  EC50: 143 nM
[1]
  Emax: 63%

## Cc1nc(-c2cc(-c3cccc(S(C)(=O)=O)c3)ccc2-n2cc(C(F)(F)F)nc2C)c(-c2ccc(OC(F)F)c(OC3CC3)c2)o1 [Example 386, 5-(3-cyclopropoxy-4-(difluoromethoxy)phenyl)-2-methyl-4-(4-(2-methyl-4-(trifluoromethyl)-1H-imidazol-1-yl)-3′-(methylsulfonyl)biphenyl-3-yl)oxazole]
  EC50: 73 nM
[1]
  Emax: 64%

## Cc1nc(-c2cc(-c3cc(F)c(CO)c(S(C)(=O)=O)c3)ccc2-n2cc(C(F)(F)F)nc2C)c(-c2cc(F)cc(F)c2)o1 [Example 448, (3′-(5-(3,5-difluorophenyl)-2-methyloxazol-4-yl)-3-fluoro-4′-(2-methyl-4-(trifluoromethyl)-1H-imidazol-1-yl)-5-(methylsulfonyl)biphenyl-4-yl)methanol]
  EC50: 96 nM
[1]
  Emax: 58%

## CNS(=O)(=O)c1cccc(-c2ccc(-n3cc(C(F)F)nc3C)c(-n3nncc3C(C)c3ccc(Cl)cc3)c2)c1 (stereo not drawn) [Example 130, 3′-{5-[1-(4-chlorophenyl)ethyl]-1H-1,2,3-triazol-1-yl}-4′-[4-(difluoromethyl)-2-methyl-1H-imidazol-1-yl]-N-methylbiphenyl-3-sulfonamide]
  EC50: 896 nM
[1]
  Emax: 68%

## Cc1nc(-c2cc(-c3cc(F)c(CO)c(S(C)(=O)=O)c3)ccc2-n2cc(C(F)(F)F)nc2C)c(-c2ccc(Cl)cc2)o1 [Example 374, {3′-[5-(4-chlorophenyl)-2-methyl-1,3-oxazol-4-yl]-3-fluoro-5-(methylsulfonyl)-4′-[2-methyl-4-(trifluoromethyl)-1H-imidazol-1-yl]biphenyl-4-yl}methanol]
  EC50: 50 nM
[1]
  Emax: 72%

## Cc1nc(-c2cc(-c3cccc(S(C)(=O)=O)c3)ccc2-n2cc(C(F)(F)F)nc2C)c(-c2ccc(Cl)c(Cl)c2)o1 [Example 508, 5-(3,4-dichlorophenyl)-2-methyl-4-(4-(2-methyl-4-(trifluoromethyl)-1H-imidazol-1-yl)-3′-(methylsulfonyl)biphenyl-3-yl)oxazole]
  EC50: 82 nM
[1]
  Emax: 68%

## CCS(=O)(=O)c1cccc(-c2ccc(-n3cc(C(C)(F)F)nc3C)c(-n3nncc3-c3ccc(OC(F)(F)F)cc3)c2)c1 [Example 177, 1-{4-[4-(1,1-difluoroethyl)-2-methyl-1H-imidazol-1-yl]-3′-(ethylsulfonyl)biphenyl-3-yl}-5-{4-[(trifluoromethyl)oxy]phenyl}-1H-1,2,3-triazole]
  EC50: 894 nM
[1]
  Emax: 78%

## Cc1nc(-c2cc(-c3cc(F)c(CO)c(S(C)(=O)=O)c3)ccc2-n2cc(C(F)(F)F)nc2C)c(-c2ccc(OC(F)F)c(OCC3CC3)c2)o1 [Example 383]
  EC50: 23 nM
[1]
  Emax: 67%

## Cc1nc(C(F)F)cn1-c1ccc(-c2cccc(S(C)(=O)=O)c2)cc1-n1nncc1-c1ccc(Cl)cc1 [Example 162, 5-(4-chlorophenyl)-1-{4-[4-(difluoromethyl)-2-methyl-1H-imidazol-1-yl]-3′-(methylsulfonyl)biphenyl-3-yl}-1H-1,2,3-triazole]
  EC50: 977 nM
[1]
  Emax: 65%

## Cc1nc(C(F)(F)F)cn1-c1ccc(-c2cccc(S(C)(=O)=O)c2)cc1-n1nncc1-c1ccc2occc2c1 [Example 86, 5-(1-benzofuran-5-yl)-1-{3′-(methylsulfonyl)-4-[2-methyl-4-(trifluoromethyl)-1H-imidazol-1-yl]biphenyl-3-yl}-1H-1,2,3-triazole]
  EC50: 583 nM
[1]
  Emax: 77%

## Cc1cc(-c2oc(C)nc2-c2cc(-c3cc(F)c(CO)c(S(C)(=O)=O)c3)ccc2-n2cc(C(F)(F)F)nc2C)cc(Cl)n1 [Example 432, (3′-(5-(2-chloro-6-methylpyridin-4-yl)-2-methyloxazol-4-yl)-3-fluoro-4′-(2-methyl-4-(trifluoromethyl)-1H-imidazol-1-yl)-5-(methylsulfonyl)biphenyl-4-yl)methanol]
  EC50: 45 nM
[1]
  % Efficacy: 83%

## Cc1nc(-c2cc(-c3cc(F)c(CO)c(S(C)(=O)=O)c3)ccc2-n2cc(Cl)nc2C)c(-c2ccc(OC(F)F)c(F)c2)o1 [Example 467, (4′-(4-chloro-2-methyl-1H-imidazol-1-yl)-3′-(5-(4-(difluoromethoxy)-3-fluorophenyl)-2-methyloxazol-4-yl)-3-fluoro-5-(methylsulfonyl)biphenyl-4-yl)methanol]
  EC50: 66 nM
[1]
  Emax: 65%

## Cc1nc(-c2cc(-c3cccc(S(C)(=O)=O)c3)ccc2-n2cc(C(F)(F)F)nc2C)c(-c2ccc(Cl)cc2)o1 [Example 375, 5-(4-chlorophenyl)-2-methyl-4-{3′-(methylsulfonyl)-4-[2-methyl-4-(trifluoromethyl)-1H-imidazol-1-yl]biphenyl-3-yl}-1,3-oxazole]
  EC50: 103 nM
[1]
  Emax: 84%

## Cc1nc(C(F)(F)F)cn1-c1ccc(-c2cc(F)c(CO)c(S(C)(=O)=O)c2)cc1-c1ocnc1-c1ccc(OC(F)(F)F)cc1 [Example 359, [3-fluoro-5-(methylsulfonyl)-4′-[2-methyl-4-(trifluoromethyl)-1H-imidazol-1-yl]-3′-(4-{4-[(trifluoromethyl)oxy]phenyl}-1,3-oxazol-5-yl)biphenyl-4-yl]methanol]
  EC50: 138 nM
[1]
  Emax: 91%
